Experimental findings from ChEMBL document CHEMBL5465560, “Selectivity Literature for EUbOPEN Chemogenomic Library” (2024) are described below.

Assay [1] addresses T1, Dual serine/threonine and tyrosine protein kinase (Homo sapiens) (UniProt Q6XUX3).
T1 sequence (whole entry): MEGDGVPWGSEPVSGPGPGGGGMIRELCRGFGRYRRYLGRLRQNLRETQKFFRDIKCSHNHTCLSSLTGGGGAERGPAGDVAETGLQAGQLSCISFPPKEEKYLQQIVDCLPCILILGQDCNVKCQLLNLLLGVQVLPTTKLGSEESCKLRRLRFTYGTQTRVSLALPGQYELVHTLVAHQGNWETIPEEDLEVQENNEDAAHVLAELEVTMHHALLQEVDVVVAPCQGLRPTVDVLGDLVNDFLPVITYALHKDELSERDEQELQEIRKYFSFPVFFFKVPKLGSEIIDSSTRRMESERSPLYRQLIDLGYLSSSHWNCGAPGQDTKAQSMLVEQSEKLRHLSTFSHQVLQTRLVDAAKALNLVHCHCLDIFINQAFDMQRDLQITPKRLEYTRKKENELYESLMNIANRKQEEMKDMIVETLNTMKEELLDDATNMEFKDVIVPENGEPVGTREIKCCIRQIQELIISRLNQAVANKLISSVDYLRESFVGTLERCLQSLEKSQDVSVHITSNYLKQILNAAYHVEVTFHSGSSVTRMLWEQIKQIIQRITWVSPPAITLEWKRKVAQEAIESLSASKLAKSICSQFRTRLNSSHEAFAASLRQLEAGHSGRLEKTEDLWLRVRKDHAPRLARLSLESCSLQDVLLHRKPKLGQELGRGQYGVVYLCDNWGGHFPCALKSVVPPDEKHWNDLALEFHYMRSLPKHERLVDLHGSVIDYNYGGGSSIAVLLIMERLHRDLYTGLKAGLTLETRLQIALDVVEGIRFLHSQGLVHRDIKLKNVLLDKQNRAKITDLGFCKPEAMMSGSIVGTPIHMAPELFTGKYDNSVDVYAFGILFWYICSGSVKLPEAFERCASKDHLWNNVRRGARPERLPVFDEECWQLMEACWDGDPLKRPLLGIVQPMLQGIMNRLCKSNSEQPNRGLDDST
Briefly: Selectivity interaction (KinomeScan (DiscoverX)) EUB0000607a DSTYK. The conditions noted are these: at 10 µM.

Assay [2] addresses Cyclin-dependent kinase 8 (Homo sapiens, UniProt P49336). Kind of assay: Selectivity interaction (KinomeScan (DiscoverX)) EUB0001619a CDK8. As to conditions: at 1 µM.
Assay [3] concerns the target Tyrosine-protein kinase ABL2 (Homo sapiens, UniProt P42684). Kind of assay: Selectivity interaction (ActivX KiNativ screen (kinase selectivity in THP-1 cell lysates)) EUB0000639a ABL2. As to conditions: lysate. The format is subcellular.
Assay [4] deals with T2, Serine/threonine-protein kinase D2 (Homo sapiens) (UniProt Q9BZL6).
T2 sequence (whole entry): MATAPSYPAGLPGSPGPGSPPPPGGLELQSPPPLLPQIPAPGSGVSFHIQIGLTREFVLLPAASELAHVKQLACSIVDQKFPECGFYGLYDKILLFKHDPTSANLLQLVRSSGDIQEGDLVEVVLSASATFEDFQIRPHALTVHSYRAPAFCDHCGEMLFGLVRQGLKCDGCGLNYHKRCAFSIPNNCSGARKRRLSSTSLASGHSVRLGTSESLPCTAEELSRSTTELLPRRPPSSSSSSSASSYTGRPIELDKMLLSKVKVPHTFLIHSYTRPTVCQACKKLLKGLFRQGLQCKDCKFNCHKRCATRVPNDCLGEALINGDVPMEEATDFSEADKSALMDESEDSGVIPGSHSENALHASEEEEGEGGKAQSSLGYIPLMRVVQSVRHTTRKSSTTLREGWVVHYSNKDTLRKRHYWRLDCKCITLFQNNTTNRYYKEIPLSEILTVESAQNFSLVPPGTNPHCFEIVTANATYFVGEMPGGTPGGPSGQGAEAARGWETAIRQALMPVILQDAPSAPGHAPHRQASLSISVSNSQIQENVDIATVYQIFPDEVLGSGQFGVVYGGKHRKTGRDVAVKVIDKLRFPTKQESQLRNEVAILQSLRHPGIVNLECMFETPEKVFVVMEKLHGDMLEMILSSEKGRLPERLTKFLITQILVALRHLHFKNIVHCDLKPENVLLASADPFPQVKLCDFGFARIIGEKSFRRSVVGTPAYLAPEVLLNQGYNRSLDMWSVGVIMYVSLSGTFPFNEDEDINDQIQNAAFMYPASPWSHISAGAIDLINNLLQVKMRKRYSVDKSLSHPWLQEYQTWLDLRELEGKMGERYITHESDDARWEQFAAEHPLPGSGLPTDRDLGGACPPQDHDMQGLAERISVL
Kind of assay: Selectivity interaction (ActivX KiNativ screen (kinase selectivity in THP-1 cell lysates)) EUB0000639a PRKD2. The format is subcellular. As to conditions: lysate, at 0.04 µM.

Tyrosine-protein kinase ABL2, sequence (P42684 whole entry): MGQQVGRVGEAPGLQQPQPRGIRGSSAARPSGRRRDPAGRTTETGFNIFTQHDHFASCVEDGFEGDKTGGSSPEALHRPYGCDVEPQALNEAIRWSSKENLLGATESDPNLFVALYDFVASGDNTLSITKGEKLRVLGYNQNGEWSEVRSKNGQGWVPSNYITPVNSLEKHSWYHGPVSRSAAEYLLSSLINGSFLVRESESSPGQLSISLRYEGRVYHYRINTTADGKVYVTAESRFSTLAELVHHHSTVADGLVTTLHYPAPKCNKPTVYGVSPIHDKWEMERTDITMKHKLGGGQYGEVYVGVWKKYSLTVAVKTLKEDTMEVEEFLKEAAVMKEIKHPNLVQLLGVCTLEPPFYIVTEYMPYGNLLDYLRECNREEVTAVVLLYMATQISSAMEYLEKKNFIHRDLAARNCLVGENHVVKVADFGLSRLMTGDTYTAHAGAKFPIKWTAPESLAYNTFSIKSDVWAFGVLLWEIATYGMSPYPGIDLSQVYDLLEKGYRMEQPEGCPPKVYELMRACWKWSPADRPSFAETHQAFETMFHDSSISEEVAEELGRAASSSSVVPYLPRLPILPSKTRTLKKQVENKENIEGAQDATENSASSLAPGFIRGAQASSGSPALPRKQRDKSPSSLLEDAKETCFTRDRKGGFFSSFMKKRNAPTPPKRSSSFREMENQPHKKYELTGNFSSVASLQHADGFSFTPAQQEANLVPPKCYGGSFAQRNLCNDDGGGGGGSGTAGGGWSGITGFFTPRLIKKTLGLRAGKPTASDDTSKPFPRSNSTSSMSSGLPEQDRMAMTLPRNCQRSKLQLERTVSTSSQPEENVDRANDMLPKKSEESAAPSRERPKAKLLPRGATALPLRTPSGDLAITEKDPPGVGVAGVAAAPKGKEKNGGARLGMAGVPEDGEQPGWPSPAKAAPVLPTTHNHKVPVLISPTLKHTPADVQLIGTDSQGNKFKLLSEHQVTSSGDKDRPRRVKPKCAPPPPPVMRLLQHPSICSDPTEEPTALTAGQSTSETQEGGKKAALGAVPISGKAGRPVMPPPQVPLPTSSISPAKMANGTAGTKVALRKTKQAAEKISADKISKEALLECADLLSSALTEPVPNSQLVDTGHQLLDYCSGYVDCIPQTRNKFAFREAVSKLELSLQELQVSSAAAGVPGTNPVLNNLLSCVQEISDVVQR
Cyclin-dependent kinase 8, sequence (P49336 whole entry): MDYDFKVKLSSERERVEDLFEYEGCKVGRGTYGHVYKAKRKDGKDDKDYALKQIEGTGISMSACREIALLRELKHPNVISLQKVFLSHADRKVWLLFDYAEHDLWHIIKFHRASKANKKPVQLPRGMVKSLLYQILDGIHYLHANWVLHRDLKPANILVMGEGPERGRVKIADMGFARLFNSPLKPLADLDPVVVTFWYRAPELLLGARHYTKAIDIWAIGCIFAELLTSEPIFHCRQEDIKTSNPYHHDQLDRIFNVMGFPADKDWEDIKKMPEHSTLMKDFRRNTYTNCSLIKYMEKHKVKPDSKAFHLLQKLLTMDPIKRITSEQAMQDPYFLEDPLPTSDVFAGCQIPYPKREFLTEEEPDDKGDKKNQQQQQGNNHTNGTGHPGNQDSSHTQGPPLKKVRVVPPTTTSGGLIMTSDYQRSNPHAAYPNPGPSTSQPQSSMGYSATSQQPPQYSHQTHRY

In assay [1], `CNC(=O)Nc1ccc(-c2nc(N3CC4CCC(C3)O4)c3cnn(C4CCC5(CC4)OCCO5)c3n2)cc1` registered a % of control of 100%.
In turn, `N#Cc1cccc(-c2c[nH]c3ncnc(N4CCOCC4)c23)c1` had a % of control in assay [2] of 80%.
With `CC[C@@H]1[C@H](F)C(=O)N[C@@H]1COc1nccc2cc(C(N)=O)c(OC)cc12` [ZIMLOVISERTIB], the % of inhibition in assay [3] (at 0.01 µM) is 52%; in assay [3] (at 0.04 µM) it was -16%; in assay [3] (at 0.2 µM) it was -25.4%; in assay [3] (at 1 µM) it was -5.3%; in assay [3] (at 5 µM), -19.6%; in assay [4], -3.5%.
